# Results from publication PMC10267561, “PI3P-dependent regulation of cell size and autophagy by phosphatidylinositol 5-phosphate 4-kinase” (Life Science Alliance, 2023).
# Biological target: T1, Mtm (Mtm^WT::GFP) (Drosophila melanogaster, UniProt Q9VMI9)
# T1 construct: C-terminal GFP tag, overexpressed (da-Gal4) in third instar larvae, whole larval lysate; ~100 kD
# T1 sequence (Q9VMI9 1-619): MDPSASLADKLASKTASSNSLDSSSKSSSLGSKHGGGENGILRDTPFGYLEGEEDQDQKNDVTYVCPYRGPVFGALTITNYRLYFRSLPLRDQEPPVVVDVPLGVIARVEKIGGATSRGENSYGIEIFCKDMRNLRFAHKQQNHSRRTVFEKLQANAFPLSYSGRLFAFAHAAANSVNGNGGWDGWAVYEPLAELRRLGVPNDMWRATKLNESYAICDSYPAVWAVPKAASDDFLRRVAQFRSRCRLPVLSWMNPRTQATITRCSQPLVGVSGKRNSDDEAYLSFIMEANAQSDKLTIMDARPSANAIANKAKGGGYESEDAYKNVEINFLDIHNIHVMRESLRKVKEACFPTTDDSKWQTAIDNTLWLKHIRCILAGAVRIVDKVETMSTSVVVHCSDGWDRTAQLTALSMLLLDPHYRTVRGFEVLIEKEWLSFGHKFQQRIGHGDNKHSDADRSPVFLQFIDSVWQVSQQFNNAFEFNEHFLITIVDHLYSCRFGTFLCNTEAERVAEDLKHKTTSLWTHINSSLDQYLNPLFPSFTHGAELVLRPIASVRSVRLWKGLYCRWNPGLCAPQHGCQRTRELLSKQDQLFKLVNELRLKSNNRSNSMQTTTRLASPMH
# Test: LC-MS/MS in vitro 3-phosphatase assay, overexpressing larval lysate vs control lysate
# Format: biochemical
# Conditions: pH 7.4 lipid suspension, phosphatidylserine, 15 min, 37 °C; 10 ug lysate protein
smiles,measurement,value
CCCCC/C=C\C/C=C\C/C=C\C/C=C\CCCC(=O)O[C@H](COC(=O)CCCCCCCCCCCCCCCC)COP(=O)(O)O[C@@H]1[C@H](O)[C@H](OP(=O)(O)O)[C@@H](O)[C@H](O)[C@H]1O [17:0 20:4 PI3P],"3-phosphatase activity, overexpressing vs control lysate",lysates with Mtm overexpression showed significantly higher PI3P 3-phosphatase activity compared with control lysates
